Experimental data as given in ChEMBL document CHEMBL5120921, “Newly Discovered Peptides from the Coral Heliofungia actiniformis Show Structural and Functional Diversity” (J Nat Prod, 2022).
Bridge positions count the residues as written; N and C are the ends. Peptide text beside a SMILES is read from it.

How the values were obtained:
Format in all cases: toxicity
[1] = (§1) Cytotoxicity against human 1BR.3.GN cells assessed as cell proliferation at 50 nM measured after 4 days by xCELLigence based analysis relative to control; conditions: 1BR.3.GN cells, time 4 day, read-out: Activity
1BR.3.GN [2] = test: as §1; conditions: 1br.3.gn, 96 h, 0.05 µM, time 4 day
1BR.3.GN [3] = test: Cytotoxicity against human 1BR.3.GN cells assessed as cell proliferation at 1250 nM measured after 4 days by xCELLigence based analysis; conditions: 96 h, 1.25 µM, time 4 day

Row | Compound | viability at 96 h, 0.05 µM [1] | Activity (1BR.3.GN [2]) | Activity (1BR.3.GN [3])
1 | CC[C@H](C)[C@H](NC(=O)[C@@H]1CSSC[C@@H]2NC(=O)[C@H](Cc3ccccc3)NC(=O)[C@H](CO)NC(=O)[C@H](CCCNC(=N)N)NC(=O)[C@@H]3CSSC[C@H](NC(=O)[C@H](CCCCN)NC(=O)[C@H](CCC(N)=O)NC(=O)[C@H](CC(=O)O)NC(=O)[C@@H]4CCCN4C2=O)C(=O)N[C@@H](CC(C)C)C(=O)N[C@@H](CCCCN)C(=O)N[C@@H](CC(=O)O)C(=O)N[C@@H](CSSC[C@H](N)C(=O)N[C@@H](C)C(=O)N2CCC[C@H]2C(=O)N[C@@H](CCC(=O)O)C(=O)N3)C(=O)NCC(=O)N1)C(=O)O (H-CAPECRSFCPDQKCLKDCGCI-OH; disulfide 1-18, 5-14, 9-20) | > 15% |  | 
2 | H-FNPVGVAFKGNNGKYLSRIHRSGIDYTEFAKDNTD-OH |  | Non-Toxic | Non-Toxic
